From patent US8895561B2, “Compounds and methods for treating candidiasis and aspergillus infections” (Cellceutix Corporation, priority 2012, dated 2014)
In brackets after ≈: the same amount, converted by molar mass. Read-outs that look alike come from different tables or passages of the source.

Legend:
Format in all cases: cell-based
C. albicans GDH2346 = test: Candida IC50, vegetative cells, by OD600 and fluorescence; conditions: Candida albicans, GDH2346
Protocol: Candida IC50s were determined by OD600 and fluorescence from vegetative cells and by MTS viability assay in the hyphal state. MICs were determined using a broth microdilution assay under standard CLSI conditions Bacteria strains: E. coli 25922 (EC), S. aureus 27660 (SA), E. faecalis 29212 (EF), P. aeruginosa 10145 (PA), and K. pneumoniae 13883 (KP). Cytotoxicity (EC50) was determined against mouse 3T3 fibroblasts, human transformed liver HepG2 cells, and human oral keratinocyte cell line, OKF6/TERT using an MTS viability assay. Candida IC50s<10 μg/mL, MICs<5 μg/mL and cytotoxicity EC50s>100 μM are indicated in green. MICs>5 μg/mL and cytotoxicity EC50s<100 μM are indicated in red. Candida IC50s (CA) were determined by OD600 and fluorescence from vegetative cells. MICs were determined using a broth microdilution assay under standard CLSI conditions Bacteria strains: E. coli 25922 (EC), S. aureus 27660 (SA), E. faecalis 29212 (EF), P. aeruginosa 10145 (PA), and K. pneumoniae 13883 (KP). Cytotoxicity (EC50) was determined against mouse 3T3 fibroblasts and human transformed liver HepG2 cells using an MTS viability assay. For determination of anti-Candida IC50s, the method was modified by using RPMI/MOPS buffer pH 6.3 and by addition of FDGlu, a substrate for the yeast enzyme exoglucanase which is secreted during cell growth. This provides a fluorescent readout for cell growth which was used in addition to the traditional optical density measure of growth. OD600 and fluorescence were determined at 24 and 48 hours and the average of all 4 reads was used for the final IC50 determination.

S. salivarius = test: Commensal bacteria MIC, broth microdilution; conditions: Streptococcus salivarius
Protocol: (§1) Bacterial MICs were determined using a broth microdilution assay under standard
(§2) CLSI conditions Bacteria strains: clinical isolates; yeast strains: C. dubliniensis (NCPF3949), C. glabrata (ATCC 90030), C. krusei (ATCC 6258), C. parapsilosis (ATCC 22019), and C. tropicalis (ATCC 750). Cytotoxicity (EC50) was determined against mouse 3T3 fibroblasts, human transformed liver HepG2 cells, and human oral keratinocyte cell line, OKF6/TERT using an MTS viability assay.

A. viscosis = test: Commensal bacteria MIC, broth microdilution
Protocol: as §1, §2

[1] = system: human oral keratinocyte cell line, OKF6/TERT; test: Cytotoxicity, MTS viability assay
Protocol: (§3) Candida IC50s were determined by OD600 and fluorescence from vegetative cells and by MTS viability assay in the hyphal state. MICs were determined using a broth microdilution assay under standard CLSI conditions Bacteria strains: E. coli 25922 (EC), S. aureus 27660 (SA), E. faecalis 29212 (EF), P. aeruginosa 10145 (PA), and K. pneumoniae 13883 (KP). Cytotoxicity (EC50) was determined against mouse 3T3 fibroblasts, human transformed liver HepG2 cells, and human oral keratinocyte cell line, OKF6/TERT using an MTS viability assay. Candida IC50s<10 μg/mL, MICs<5 μg/mL and cytotoxicity EC50s>100 μM are indicated in green. MICs>5 μg/mL and cytotoxicity EC50s<100 μM are indicated in red.
as §2

E. coli 25922 = test: Bacterial MIC, broth microdilution, CLSI; conditions: Escherichia coli; E. coli 25922
Protocol: as §3, with “red. Candida IC50s (CA) were determined by OD600 and fluorescence from vegetative cells. MICs were determined using a broth microdilution assay under standard CLSI conditions Bacteria strains: E. coli 25922 (EC), S. aureus 27660 (SA), E. faecalis 29212 (EF), P. aeruginosa 10145 (PA), and K. pneumoniae 13883 (KP). Cytotoxicity (EC50) was determined against mouse 3T3 fibroblasts and human transformed liver HepG2 cells using an MTS viability assay.” for “red.”

P. aeruginosa 10145 = test: Bacterial MIC, broth microdilution, CLSI; conditions: Pseudomonas aeruginosa; P. aeruginosa 10145
Protocol: as §3, with “red. Candida IC50s (CA) were determined by OD600 and fluorescence from vegetative cells. MICs were determined using a broth microdilution assay under standard CLSI conditions Bacteria strains: E. coli 25922 (EC), S. aureus 27660 (SA), E. faecalis 29212 (EF), P. aeruginosa 10145 (PA), and K. pneumoniae 13883 (KP). Cytotoxicity (EC50) was determined against mouse 3T3 fibroblasts and human transformed liver HepG2 cells using an MTS viability assay.” for “red.”

S. aureus 27660 = test: Bacterial MIC, broth microdilution, CLSI; conditions: Staphylococcus aureus; S. aureus 27660
Protocol: as §3, with “red. Candida IC50s (CA) were determined by OD600 and fluorescence from vegetative cells. MICs were determined using a broth microdilution assay under standard CLSI conditions Bacteria strains: E. coli 25922 (EC), S. aureus 27660 (SA), E. faecalis 29212 (EF), P. aeruginosa 10145 (PA), and K. pneumoniae 13883 (KP). Cytotoxicity (EC50) was determined against mouse 3T3 fibroblasts and human transformed liver HepG2 cells using an MTS viability assay.” for “red.”

K. pneumoniae 13883 = test: Bacterial MIC, broth microdilution, CLSI; conditions: Klebsiella pneumoniae
Protocol: as §3, with “red. Candida IC50s (CA) were determined by OD600 and fluorescence from vegetative cells. MICs were determined using a broth microdilution assay under standard CLSI conditions Bacteria strains: E. coli 25922 (EC), S. aureus 27660 (SA), E. faecalis 29212 (EF), P. aeruginosa 10145 (PA), and K. pneumoniae 13883 (KP). Cytotoxicity (EC50) was determined against mouse 3T3 fibroblasts and human transformed liver HepG2 cells using an MTS viability assay.” for “red.”

E. faecalis 29212 = test: Bacterial MIC, broth microdilution, CLSI; conditions: Enterococcus faecalis; E. faecalis 29212
Protocol: as §3, with “red. Candida IC50s (CA) were determined by OD600 and fluorescence from vegetative cells. MICs were determined using a broth microdilution assay under standard CLSI conditions Bacteria strains: E. coli 25922 (EC), S. aureus 27660 (SA), E. faecalis 29212 (EF), P. aeruginosa 10145 (PA), and K. pneumoniae 13883 (KP). Cytotoxicity (EC50) was determined against mouse 3T3 fibroblasts and human transformed liver HepG2 cells using an MTS viability assay.” for “red.”

[2] = system: C. albicans GDH2346 hyphal biofilm; test: Candida IC50 in the hyphal state / hyphal biofilm, MTS viability assay; conditions: Candida albicans
Protocol: Candida IC50s were determined by OD600 and fluorescence from vegetative cells and by MTS viability assay in the hyphal state. MICs were determined using a broth microdilution assay under standard CLSI conditions Bacteria strains: E. coli 25922 (EC), S. aureus 27660 (SA), E. faecalis 29212 (EF), P. aeruginosa 10145 (PA), and K. pneumoniae 13883 (KP). Cytotoxicity (EC50) was determined against mouse 3T3 fibroblasts, human transformed liver HepG2 cells, and human oral keratinocyte cell line, OKF6/TERT using an MTS viability assay. Candida IC50s<10 μg/mL, MICs<5 μg/mL and cytotoxicity EC50s>100 μM are indicated in green. MICs>5 μg/mL and cytotoxicity EC50s<100 μM are indicated in red. To form the biofilm, yeast were grown in RPMI/MOPS, 0.4% sucrose pH7.4 media supplemented with 10% FBS in tissue culture-treated flat bottom 96 well plates for 48 hours. The filamentous yeast cultures were then vigorously washed to remove any non-filamentous, non-attached yeast. The remaining attached filamentous biofilm yeast were incubated in saline containing serially diluted compounds for 24 hours. The cultures were aspirated to remove compound, rinsed and overlayed with RPMI/MOPS, 0.4% sucrose pH7.4 media. Biofilm viability was measured using a cell proliferation assay (CellTiter96 Aqueous Kit from Promega) and IC50s were determined using Prism GraphPad software (nonlinear fit, Table 3).

[3] = vegetative cells, read-out: IC50 Candida, Vegetative
[4] = vegetative cultures, read-out: Anti-C. albicans GDH2346 Vegetative (IC50)
[5] = 48 h, 2-day hyphal biofilm cultures, read-out: Anti-C. albicans GDH2346 Hyphal (IC50)
[6] = hyphal state, read-out: IC50 Candida, Hyphal

IC50 (C. albicans GDH2346; [3]) | IC50 (C. albicans GDH2346; [4]) | MIC (S. salivarius) | MIC (A. viscosis) | EC50 (E. coli 25922) | EC50 (P. aeruginosa 10145) | EC50 (S. aureus 27660) | EC50 (K. pneumoniae 13883) | EC50 (E. faecalis 29212) | IC50 [2, 5] | IC50 [2, 6] | IC50 (C. albicans GDH2346; Table 6, read-out: IC50 C. albicans) | Compound | IC50 [1]
4.93 µg/mL (≈ 6.53 µM) | 4.93 µg/mL (≈ 6.53 µM) | > 64 µg/mL | > 64 µg/mL | 1.56 µg/mL (≈ 2.07 µM) | 3.13 µg/mL (≈ 4.15 µM) | 0.78 µg/mL (≈ 1.03 µM) | 1.56 µg/mL (≈ 2.07 µM) | 0.78 µg/mL (≈ 1.03 µM) | 4.9 µg/mL (≈ 6.49 µM) | 4.9 µg/mL (≈ 6.49 µM) |  | NCCSc1cc(SCCN)c(C(F)(F)F)cc1NC(=O)c1cc(C(=O)Nc2cc(C(F)(F)F)c(SCCN)cc2SCCN)ncn1 [Compound 100] | > 1000 µM
4.24 µg/mL (≈ 8.75 µM) | 4.24 µg/mL (≈ 8.75 µM) | 16 µg/mL (≈ 33 µM) | 4 µg/mL (≈ 8.25 µM) | > 50 µg/mL | 50 µg/mL (≈ 103 µM) | 0.39 µg/mL (≈ 0.805 µM) | 50 µg/mL (≈ 103 µM) | 0.098 µg/mL (≈ 0.202 µM) | 0.71 µg/mL (≈ 1.47 µM) | 0.71 µg/mL (≈ 1.47 µM) | 1.4 µg/mL (≈ 2.89 µM) | N=C(N)N1CCN(c2ccc(-c3cc(-c4ccc(N5CCN(C(=N)N)CC5)cc4)ncn3)cc2)CC1 [Compound 136] | 466 µM
1.89 µg/mL (≈ 2.59 µM) |  | > 64 µg/mL | > 64 µg/mL | 50 µg/mL (≈ 68.5 µM) | 50 µg/mL (≈ 68.5 µM) | 25 µg/mL (≈ 34.3 µM) | > 50 µg/mL | 25 µg/mL (≈ 34.3 µM) |  | 2.29 µg/mL (≈ 3.14 µM) |  | NCCCOc1cc(-c2cn(-c3cc(OCCCN)cc(OCCCN)c3)nn2)cc(-c2cn(-c3cc(OCCCN)cc(OCCCN)c3)nn2)c1 [Compound 137] | 42 µM

Compound | IC50 (C. albicans GDH2346; [3]) | IC50 (C. albicans GDH2346; [4]) | MIC (S. salivarius) | MIC (A. viscosis) | EC50 (E. coli 25922) | EC50 (P. aeruginosa 10145) | EC50 (S. aureus 27660) | EC50 (K. pneumoniae 13883) | EC50 (E. faecalis 29212) | IC50 [2, 5] | IC50 [2, 6] | IC50 (C. albicans GDH2346; Table 6, read-out: IC50 C. albicans) | IC50 [1]
NCCCOc1cc(OCCCN)cc(-c2ccc3c(c2)c2cc(-c4cc(OCCCN)cc(OCCCN)c4)ccc2n3CCCN)c1 [Compound 135] | 1.44 µg/mL (≈ 2.15 µM) | 1.44 µg/mL (≈ 2.15 µM) | > 64 µg/mL | > 64 µg/mL | 6.25 µg/mL (≈ 9.34 µM) | > 50 µg/mL | 12.5 µg/mL (≈ 18.7 µM) | 12.5 µg/mL (≈ 18.7 µM) | 12.5 µg/mL (≈ 18.7 µM) | 2.68 µg/mL (≈ 4.01 µM) | 2.68 µg/mL (≈ 4.01 µM) |  | 766 µM
